Measurements reported in patent US4200631A, “Treating mammalian subject sensitive to indomethacin ulcerogenisis” (priority 1978, dated 1980).

Conditions: rat, in vivo, po

With `COc1ccc2c(c1)c(CC(=O)O)c(C)n2C(=O)c1ccc(Cl)cc1` [Indomethacin] the “Therapeutical index LD50/ED50 (B)” value was 8.9.
